Earlier results on one compound are cited in patent US20130001095A1, “METHOD OF PRODUCING COUPLED RADICAL PRODUCTS” (priority 2009, published 2013).

Regarding `O=C([O-])CCCC(=O)[O-].[Na+].[Na+]` [Sodium glutarate], where the note is “methanol”, the solubility in methanol entry was “not soluble”. Moreover, for the setting “water”, the solubility in water entry is listed as “soluble”.
